Patent publication US7074798B2, “Xanthine derivative and DPPIV inhibitor” (Eisai Co., Ltd, priority 2002, dated 2006)
Counter-ions that a name gives are not always drawn.

Each compound was assayed on male C57BL/6N mouse (assay: Effect on glucose tolerance of normal mouse (oral glucose loading)). Conditions: 2 h, 0.3 mg/kg oral, 30 min before glucose 2 g/kg, AUC0-120, 0.5% MC = 100%, NVP DPP728 10 mg/kg = 0%, lower = better, read-out: Improvement degree of glucose tolerance.
Type: in vivo
Method: Effect on Glucose Tolerance of Normal Mouse
male C57BL/6N mouse (purchased from CHARLES RIVER JAPAN, INC.)
A suspension of the test compound and NVP DPP728 or 0.5% MC solution (solvent control group) were orally administered at a dose of 10 mL/kg, and after 30 minutes, glucose solution was orally administered at a dose of 10 mL/kg. Glucose was orally administered at a dose of 2 g/kg.
Immediately before the administration of the test substance and NVP DPP728, immediately before the administration of the glucose solution and at 30 minutes, 60 minutes, and 120 minutes after the administration, a tail vein of the mouse was injured to slightly bleed by a razor under no anesthesia. 10 μl of blood was collected and was immediately mixed with 0.6M perchloric acid (140 μl). Glucose in the supernatant obtained by centrifugation (1500 g, 10 minutes, 4° C., refrigerated centrifuge GS-6KR, Beckman Instruments, Inc.) was measured using Glucose CII-Test Wako (Wako Pure Chemical Industries, Ltd.).
Area under the curve of blood glucose level-time (AUC0-120; Area Under the Curve) from the time of administration of glucose to 120 minutes after administration was calculated for respective administration groups, i.e., 0.5% MC solution, NVP DPP728, and the test compounds. Taking the AUC0-120 of the 0.5% MC solution administration group as 100% and the AUC0-120 of NVP DPP728 (10 mg/kg) administration group as 0%, the improvement degree of the glucose tolerance of a test compound was calculated using the following formula: Improvement degree of the glucose tolerance (%)=(AUC0-120 of the test compound−AUC0-120 of the NVP DPP728 (10 mg/kg) administration group)/(AUC0-120 of the 0.5% MC solution administration group−AUC0-120 of the NVP DPP728 (10 mg/kg) administration group)×100. • The lower the % value, the greater the improvement degree of the glucose tolerance will be.

Row | SMILES | response vs control in vivo at 0.3 mg/kg [%]
1 | CC#CCn1c(N2CCNCC2)nc2c1c(=O)n(CC(=O)c1ccccc1)c(=O)n2C [Example 30, 7-(2-Butynyl)-3-methyl-1-(2-oxo-2-phenylethyl)-8-(piperazin-1-yl)-3,7-dihydropurine-2,6-dione trifluoroacetate] | 49.4

Same assay, conditions: 2 h, 1 mg/kg oral, 30 min before glucose 2 g/kg, AUC0-120, 0.5% MC = 100%, NVP DPP728 10 mg/kg = 0%, lower = better, read-out: Improvement degree of glucose tolerance

Row | SMILES | response vs control in vivo at 1 mg/kg [%]
2 | CC#CCn1c(N2CCNCC2)nc2c1c(=O)[nH]c(=O)n2C [Example 14, 7-(2-Butynyl)-3-methyl-8-(piperazin-1-yl)-3,7-dihydropurine-2,6-dione] | 41.9
3 | CC#CCn1c(N2CCNCC2)nc2c1c(=O)n(CC(=O)c1ccccc1)c(=O)n2C [Example 30, 7-(2-Butynyl)-3-methyl-1-(2-oxo-2-phenylethyl)-8-(piperazin-1-yl)-3,7-dihydropurine-2,6-dione trifluoroacetate] | -14.3
4 | CC#CCn1c(N2CCNCC2)nc2c1c(=O)n(Cc1ccccc1C#N)c(=O)n2C [Example 39, 2-[7-(2-Butynyl)-3-methyl-2,6-dioxo-8-(piperazin-1-yl)-2,3,6,7-tetrahydropurin-1-ylmethyl]-benzonitrile trifluoroacetate] | 45.5
5 | C=Cc1ccccc1-n1c(N2CCNCC2)nc2c1c(=O)[nH]c(=O)n2C [Example 174, 7-(2-Vinylphenyl)-3-methyl-8-(piperazin-1-yl)-3,7-dihydropurine-2,6-dione] | 24.3

Same assay, conditions: 2 h, 3 mg/kg oral, 30 min before glucose 2 g/kg, AUC0-120, 0.5% MC = 100%, NVP DPP728 10 mg/kg = 0%, lower = better, read-out: Improvement degree of glucose tolerance

Row | SMILES | response vs control in vivo at 3 mg/kg [%]
6 | CC#CCn1c(N2CCNCC2)nc2c1c(=O)n(C)c(=O)n2C [Example 10, 7-(2-Butynyl)-1,3-dimethyl-8-(piperazin-1-yl)-3,7-dihydropurine-2,6-dione] | 0.5
7 | CC#CCn1c(N2CCNCC2)nc2c1c(=O)n(CC(=O)OC)c(=O)n2C [Example 15, [7-(2-Butynyl)-3-methyl-2,6-dioxo-8-(piperazin-1-yl)-2,3,6,7-tetrahydropurin-1-yl]acetic acid methyl ester trifluoroacetate] | -17.2
8 | CC#CCn1c(N2CCNCC2)nc2c1c(=O)n(CCOCC)c(=O)n2C [Example 18, 7-(2-Butynyl)-1-(2-ethoxyethyl)-3-methyl-8-(piperazin-1-yl)-3,7-dihydropurine-2,6-dione trifluoroacetate] | 9.5
9 | C#CCn1c(=O)c2c(nc(N3CCNCC3)n2CC#CC)n(C)c1=O [Example 19, 7-(2-Butynyl)-3-methyl-8-(piperazin-1-yl)-1-(2-propynyl)-3,7-dihydropurine-2,6-dione trifluoroacetate] | -13.1
10 | CC#CCn1c(=O)c2c(nc(N3CCNCC3)n2CC#CC)n(C)c1=O [Example 20, 1,7-Bis(2-butynyl)-3-methyl-8-(piperazin-1-yl)-3,7-dihydropurine-2,6-dione trifluoroacetate] | 5
11 | CC#CCn1c(N2CCNCC2)nc2c1c(=O)n(CC#N)c(=O)n2C [Example 21, [7-(2-Butynyl)-3-methyl-2,6-dioxo-8-(piperazin-1-yl)-2,3,6,7-tetrahydropurin-1-yl]acetonitrile trifluoroacetate] | 4.8
12 | COc1ccccc1-n1c(N2CCNCC2)nc2c1c(=O)n(C)c(=O)n2C [Example 123, 7-(2-Methoxyphenyl)-1,3-dimethyl-8-(piperazin-1-yl)-3,7-dihydropurine-2,6-dione trifluoroacetate] | 17.9
13 | C=Cc1ccccc1-n1c(N2CCNCC2)nc2c1c(=O)n(C)c(=O)n2C [Example 147, 7-(2-Vinylphenyl)-1,3-dimethyl-8-(piperazin-1-yl)-3,7-dihydropurine-2,6-dione trifluoroacetate] | 13
14 | Cn1c(=O)[nH]c(=O)c2c1nc(N1CCNCC1)n2-c1ccccc1Cl [Example 156, 7-(2-Chlorophenyl)-3-methyl-8-(piperazin-1-yl)-3,7-dihydropurine-2,6-dione trifluoroacetate] | 0.9
15 | COc1ccccc1-n1c(N2CCNCC2)nc2c1c(=O)n(CC#N)c(=O)n2C [Example 166, [7-(2-Methoxyphenyl)-3-methyl-2,6-dioxo-8-(piperazin-1-yl)-2,3,6,7-tetrahydropurin-1-yl]acetonitrile trifluoroacetate] | 16.1
16 | C=Cc1ccccc1-n1c(N2CCNCC2)nc2c1c(=O)[nH]c(=O)n2C [Example 174, 7-(2-Vinylphenyl)-3-methyl-8-(piperazin-1-yl)-3,7-dihydropurine-2,6-dione] | -9.1
